Reference: PMC8519033 (Pediatric Obesity, 2021)

Legend:
[1] = Population pharmacokinetic analysis of liraglutide (one-compartment model, NONMEM FOCE-I; plasma ELISA); type: in vivo, human; conditions: for Absorption rate constant KA / Apparent volume of distribution V/F: parameter fixed
Protocol: As the focus of the analysis was a comparison of different age populations, age was prespecified to be included initially as a categorical variable.
In trial 4180, Tanner staging (stages 2‐5) of adolescents was assessed by site staff trained in pubertal assessments. For females, assessments of breast and pubic hair development were made. For males, assessments of testicular volume (by orchidometer), penis development and pubic hair development were made. Prepubertal patients were not permitted in the trial.
The structural model was parameterized in terms of the following parameters: • ka (absorption rate constant) • CL/F (apparent clearance) • V/F (apparent volume of distribution)
The first‐order conditional estimation with interaction (FOCE‐I) method was used for the population pharmacokinetic analysis, implemented in the non‐linear mixed effects modelling (NONMEM) software.
An analysis of the influence of covariates on exposure was carried out including all tested covariates in one step, using a confirmatory approach,[32] and disregarding any interactions between age group and sex. Model development involved estimation of a base model without covariates and a full model including all predefined covariates. If any covariates without statistically significant effect could be excluded, the reduced model would be considered the final population pharmacokinetic model. The covariates were prespecified and based on earlier findings in phase 3 trials with adults as well as prior knowledge from smaller trials in children and adolescents.
Specific steady‐state exposures for individual participants were based on the full model, including all covariates, and derived from the subject‐specific post‐hoc CL/F estimates, the maintenance dose and the dose interval (24 hours): (6) Cavg=Dose/CL/F*24hours
The CIs for full model parameters were estimated using bootstrapping. For each investigated covariate, differences were considered relevant if the 90% CI of the estimated mean of the relative exposure fell outside the standard bioequivalence limits (0.80‐1.25).
Between‐subject variability was included for CL/F and V/F, assuming log‐normal distributions […]. Furthermore, CL/F and V/F were estimated using a full variance‐covariance matrix. No between‐subject variability was included for ka. Within‐subject variability (residual) was described by a proportional error model. Standard graphical quality analyses, including goodness‐of‐fit plots (Figure S1), were made during qualification of the pharmacokinetic model.

[2] = test system: adolescents in trial 4180; set-up: species or system human; conditions: in vivo
Protocol: The analyses were conducted using response data at week 20 (phase 2 trial 1807), week 50 (phase 3a trial 1922) or week 56 (phase 3a trials 4180 and 1839) to align with the original analysis in adults. The appropriateness of using different trial lengths for the historical adult trials was evaluated by graphically exploring the weight loss longitudinally. This was deemed appropriate as the maximal effect on weight reduction was reached after 20 weeks of treatment and remained stable thereafter for the trials of longer duration. […] The two age groups differed in the placebo group response, with lower mean responses in adolescents; this difference was consistent across the exposure range as well. […] However, the effect of age group on the maximal effect in the model (Emax) was not significant in these analyses. […] Approximately 64% of the adolescents in the exposure‐response analysis grew more than 0.5 cm during the trial. Of these, some received liraglutide and some received placebo.

[3] = test system: pubertal adolescents with obesity; conditions: 56-week trial, liraglutide in addition to lifestyle therapy; 95% CI -0.37, -0.08; P = 0.002; cited from earlier work
[4] = base pharmacokinetic model without covariates

Absorption rate constant KA [1, 4]: 0.0804 h⁻¹ | Apparent volume of distribution V/F [1, 4]: 13.1 L | Absorption rate constant KA ([1]; final (full covariate) pharmacokinetic model, trials 4180, 3967, 3630, 4181, children, adolescents and adults with obesity, N = 176): 0.0813 h⁻¹ | Apparent volume of distribution V/F ([1]; final pharmacokinetic model, reference subject adult female, 100 kg): 13.8 L | Average growth (height) during the trial [2]: 1.4 cm
SMILES: CCCCCCCCCCCCCCCC(=O)N[C@@H](CCC(=O)NCCCC[C@H](NC(=O)[C@H](C)NC(=O)[C@H](C)NC(=O)[C@H](CCC(N)=O)NC(=O)CNC(=O)[C@H](CCC(=O)O)NC(=O)[C@H](CC(C)C)NC(=O)[C@H](Cc1ccc(O)cc1)NC(=O)[C@H](CO)NC(=O)[C@H](CO)NC(=O)[C@@H](NC(=O)[C@H](CC(=O)O)NC(=O)[C@H](CO)NC(=O)[C@@H](NC(=O)[C@H](Cc1ccccc1)NC(=O)[C@@H](NC(=O)CNC(=O)[C@H](CCC(=O)O)NC(=O)[C@H](C)NC(=O)[C@@H](N)Cc1cnc[nH]1)[C@@H](C)O)[C@@H](C)O)C(C)C)C(=O)N[C@@H](CCC(=O)O)C(=O)N[C@@H](Cc1ccccc1)C(=O)N[C@H](C(=O)N[C@@H](C)C(=O)N[C@@H](Cc1c[nH]c2ccccc12)C(=O)N[C@@H](CC(C)C)C(=O)N[C@H](C(=O)N[C@@H](CCCNC(=N)N)C(=O)NCC(=O)N[C@@H](CCCNC(=N)N)C(=O)NCC(=O)O)C(C)C)[C@@H](C)CC)C(=O)O [liraglutide]
Body weight exponent on V/F (V-BW) ([1]; final pharmacokinetic model): 0.587 | BMI standard-deviation score (SDS), estimated treatment difference compared with placebo [3]: −0.22
